Measured values taken from patent US10500209B2, “Quinazolinones as bromodomain inhibitors” (Zenith Epigenetics Ltd., priority 2013, dated 2019).

Experiments:
[1] = biological target: T1, Brd4 bromodomain 1 (BRD4(1)) (Homo sapiens, UniProt O60885); experiment: Inhibition of tetra-acetylated histone H4 binding to BET bromodomains (TR-FRET); parameters: key: Active: Compounds with an IC50 value less than 30 μM were deemed to be active.; Not Active: Compounds with an IC50 value less than 30 μM were deemed to be active; details: first bromodomain of Brd4, tetra-acetylated histone H4 peptide
T1 construct: made in house; host or cells: E. coli BL21(DE3)
Method: Proteins were cloned and overexpressed with a N-terminal 6×His tag, then purified by nickel affinity followed by size exclusion chromatography. Briefly, E. coli BL21(DE3) cells were transformed with a recombinant expression vector encoding N-terminally Nickel affinity tagged bromodomains from Brd2, Brd3, Brd4. Cell cultures were incubated at 37° C. with shaking to the appropriate density and induced overnight with IPTG. The supernatant of lysed cells was loaded onto Ni-IDA column for purification. Eluted protein is pooled, concentrated and further purified by size exclusion chromatography. Fractions representing monomeric protein were pooled, concentrated, aliquoted, and frozen at −80° C. for use in subsequent experiments.
Binding of tetra-acetylated histone H4 and BET bromodomains was confirmed by a Time Resolved Fluorescence Resonance Energy Transfer (TR-FRET) method. N-terminally His-tagged bromodomains (200 nM) and biotinylated tetra-acetylated histone H4 peptide (25-50 nM, Millipore) were incubated in the presence of Europium Cryptate-labeled streptavidin (Cisbio Cat. #610SAKLB) and XL665-labeled monoclonal anti-His antibody (Cisbio Cat. #61HISXLB) in a white 96 well microtiter plate (Greiner). For inhibition assays, serially diluted test compound was added to these reactions in a 0.2% final concentration of DMSO. Final buffer concentrations were 30 mM HEPES pH 7.4, 30 mM NaCl, 0.3 mM CHAPS, 20 mM phosphate pH 7.0, 320 mM KF, 0.08% BSA). After a 2-h incubation at room temperature, the fluorescence by FRET was measured at 665 and 620 nm by a SynergyH4 plate reader (Biotek). The binding inhibitory activity was shown by a decrease in 665 nm fluorescence relative to 620 nm. IC50 values were determined from a dose response curve.

[2] = system: c-myc in MV4-11 cells; experiment: Inhibition of c-myc expression in cancer cell lines (mRNA, real-time PCR); type: cell-based, Human; parameters: key: Active: Compounds with an IC50 value less than 30 μM were deemed to be active.; Not Active: Compounds with an IC50 value less than 30 μM were deemed to be active; details: 3 h
Method: MV4-11 cells (2.5×10^4 cells) were plated in 96 well U-bottom plates with test compound or DMSO (0.1%), and incubated for 3 h at 37° C. Cells were then harvested by centrifugation, lysed, and mRNA was isolated using the mRNA catcher plus kit (Invitrogen). Reverse transcription of the mRNA and duplex amplification of the c-myc and cyclophilin cDNAs was performed using the RNA Ultrasense kit (Invitrogen) and a ViiA7 real-time PCR machine (Applied Biosystems). IC50 values were determined from a dose response curve.

[3] = system: human AML MV-4-11 cells; experiment: Inhibition of cell proliferation in cancer cell lines (CellTiter Aqueous One); type: cell-based; parameters: key: Active: Compounds with an IC50 value less than 30 μM were deemed to be active.; Not Active: Compounds with an IC50 value less than 30 μM were deemed to be active; details: 72 h
Method: MV4-11 cells: 96-well plates were seeded with 5×10^4 cells per well of exponentially growing human AML MV-4-11 (CRL-9591) cells and immediately treated with two-fold dilutions of test compounds, ranging from 30 μM to 0.2 μM. Triplicate wells were used for each concentration, as well as a media only and three DMSO control wells. The cells and compounds were incubated at 37° C., 5% CO2 for 72 h before adding 20 μL of the CellTiter Aqueous One Solution (Promega) to each well and incubating at 37° C., 5% CO2 for an additional 3-4 h. The absorbance was taken at 490 nm in a spectrophotometer and the percentage of proliferation relative to DMSO-treated cells was calculated after correction from the blank well. IC50 were calculated using the GraphPad Prism software.

[4] = system: hIL-6 mRNA; experiment: Inhibition of hIL-6 mRNA transcription in LPS-stimulated U937 macrophages; type: cell-based, human; parameters: key: Active: Compounds with an IC50 value less than 30 μM were deemed to be active.; Not Active: Compounds with an IC50 value less than 30 μM were deemed to be active; details: U937 cells differentiated with PMA, LPS stimulation, 3 h
Method: In this example, hIL-6 mRNA in tissue culture cells was quantitated to measure the transcriptional inhibition of hIL-6 when treated with a compound of the present disclosure.
A human leukemic monocyte lymphoma cell line (U937) was plated (3.2×10^4 cells per well) in a 96-well plate in 100 μL RPMI-1640 containing 10% FBS and penicillin/streptomycin, and differentiated into macrophages for 3 days in 60 ng/mL PMA ([…]) at 37° C. in 5% CO2 prior to the addition of the compound of interest. The cells were pretreated for 1 h with the test compound prior to stimulation with 1 ug/mL lipopolysaccharide from Escherichia coli. The cells were incubated at 37° C. for 3 h before the cells were harvested. At time of harvest, the spent media was removed from the cells and the cells were rinsed in 200 μL PBS. Cell lysis solution (70 μL) was added the cells in each well and incubated for 5-10 min at room temperature, to allow for complete cell lysis and detachment. mRNA was then prepared using the “mRNA Catcher PLUS plate” (Invitrogen), according to the protocol supplied. After the last wash, as much wash buffer as possible was aspirated without allowing the wells to dry. Elution buffer (E3, 70 μL) was then added to each well. mRNA was then eluted by incubating the mRNA Catcher PLUS plate with Elution Buffer for 5 min at 68° C. and then immediately placing the plate on ice.
The eluted mRNA isolated was then used in a one-step quantitative real-time PCR reaction, using components of the Ultra Sense Kit together with Applied Biosystems primer-probe mixes. Real-time PCR data was analyzed, normalizing the Ct values for hIL-6 to an internal control, prior to determining the fold induction of each unknown sample, relative to the control.

FRET activity BRD4(1) [1]	c-myc activity (IC50 < 30 μM) [2]	Cell Proliferation activity (IC50 < 30 μM) [3]	IL-6 activity (IC50 < 30 μM) [4]	melting point	SMILES
Active	Active	Active	Active	–	COc1cc(OC)c2c(=O)[nH]c(-c3ncccc3NC3CCN(C(C)=O)CC3)nc2c1 [Example 37, 2-(3-((1-Acetylpiperidin-4-yl)amino)pyridine-2-yl)-5,7-dimethoxyquinazolin-4(3H)-one]
Active	Active	Not Active	Active	–	COc1ccc(NC2CCN(C(C)C)CC2)c(-c2nc3cc(OC)cc(OC)c3c(=O)[nH]2)c1 [Example 26, 2-(2-((1-Isopropylpiperidin-4-yl)amino)-5-methoxyphenyl)-5,7-dimethoxyquinazolin-4(3H)-one]
Active	–	Not Active	Active	253 °C (dec.)	COc1ccc(-c2nc3cc(OC)cc(OC)c3c(=O)[nH]2)c(N[C@H]2CC[C@H](C(C)(C)O)CC2)c1 [Example 31, 2-(2-((trans-4-(2-Hydroxypropan-2-yl)cyclohexyl)amino)-4-methoxyphenyl)-5,7-dimethoxyquinazolin-4(3H)-one]
Active	Active	Not Active	Active	230 to 231 °C	COc1cc(OC)c2c(=O)[nH]c(-c3ncccc3NCCCNC(=O)C(C)C)nc2c1 [Example 57, N-(3-((2-(5,7-Dimethoxy-4-oxo-3,4-dihydroquinazolin-2-yl)pyridin-3-yl)amino)propyl)isobutyramide]
Active	Active	Active	Active	170 to 172 °C	COc1cc(OC)c2c(=O)[nH]c(-c3ncccc3NC3CCN(C(C)C)CC3)nc2c1 [Example 18, 2-(3-((1-Isopropylpiperidin-4-yl)amino)pyridin-2-yl)-5,7-dimethoxyquinazolin-4(3H)-one]
Active	Active	Active	Active	173 to 176 °C	COc1cc(OC)c2c(=O)[nH]c(-c3ncc(OCCO)cc3NC3CCN(C(=O)C(C)C)CC3)nc2c1 [Example 64, 2-[5-(2-Hydroxyethoxy)-3-(1-isobutyroylpiperidin-4-ylamino)pyridin-2-yl]-5,7-dimethoxyquinazolin-4(3H)-one]
Active	Active	Active	Active	233 to 235 °C	COc1ccc(-c2nc3cc(OC)cc(OC)c3c(=O)[nH]2)c(NCC2CCN(C)C2)c1 (stereo not drawn) [Example 7, 5,7-Dimethoxy-2-(4-methoxy-2-(((1-methylpyrrolidin-3-yl)methyl)amino)phenyl)-quinazolin-4(3H)-one]
Active	Active	Active	Active	219 to 221 °C	CCNc1cc(OC)c2c(=O)[nH]c(-c3ncccc3NC3CCN(C(C)C)CC3)nc2c1 [Example 69, 7-(Ethylamino)-2-(3-((1-isopropylpiperidin-4-yl)amino)pyridin-2-yl)-5-methoxyquinazolin-4(3H)-one]
Active	Active	Active	Active	248 to 250 °C	COc1ccc(-c2nc3cc(OC)cc(OC)c3c(=O)[nH]2)c(NC2CCN(C(C)C)CC2)c1 [Example 3, 2-(2-((1-isopropylpiperidin-4-yl)amino)-4-methoxyphenyl)-5,7-dimethoxyquinazolin-4(3H)-one]
Active	Active	Active	Active	290 to 291 °C	COc1cc(OC)c2c(=O)[nH]c(-c3ncccc3NC3CCN(C(=O)C(C)O)CC3)nc2c1 (stereo not drawn) [Example 60, 2-(3-((1-(2-hydroxypropanoyl)piperidin-4-yl)amino)pyridin-2-yl)-5,7-dimethoxyquinazolin-4(3H)-one]
Active	Active	Active	Active	262 to 264 °C	COc1ccc(-c2nc3cc(OC)cc(OC)c3c(=O)[nH]2)c(NCCNC(C)C)c1 [Example 8, 2-(2-((2-(Isopropylamino)ethyl)amino)-4-methoxyphenyl)-5,7-dimethoxyquinazolin-4(3H)-one]
Active	Active	Active	Active	–	COc1ccc(-c2nc3cc(OC)cc(OC)c3c(=O)[nH]2)c(NC2CCN(C(C)=O)CC2)c1 [Example 39, 2-(2-((1-Acetylpiperidin-4-yl)amino)-4-methoxyphenyl)-5,7-dimethoxyquinazolin-4(3H)-one]
Active	–	Not Active	Active	198 to 199 °C	COc1cc(OC)c2c(=O)[nH]c(-c3ncccc3NC3CCN(C(=O)NC(C)C)CC3)nc2c1 [Example 47, 4-((2-(5,7-Dimethoxy-4-oxo-3,4-dihydroquinazolin-2-yl)pyridin-3-yl)amino)-N-isopropylpiperidine-1-carboxamide]
Active	–	Not Active	Active	–	COc1cnc(-c2nc3cc(OC)cc(OC)c3c(=O)[nH]2)c(N[C@H]2CC[C@@H](C(=O)NC(C)C)CC2)c1 [Example 45, cis-4-((2-(5,7-Dimethoxy-4-oxo-3,4-dihydroquinazolin-2-yl)-5-methoxypyridin-3-yl)amino)-N-isopropylcyclohexane-1-carboxamide]
